pIC50: −log10 of the molar value. Activity calls are given as the source filed them. How the calls were made is not given here.
Tested on: Jurkat NF-kB reporter, TCR-induced, luciferase luminescence
Test: inhibitors of TCR-driven NF-kB activation, dose response, Jurkat cells, luminescence (AID 489035)

| SMILES | IC50 | pIC50 |
| --- | --- | --- |
| CC(C)Oc1ccccc1C1CC(=O)Nc2cc3c(cc21)OCCO3 (stereo unspecified) | > 80 µM (inactive) |  |
| COc1cc(C2c3cc4c(cc3CC3COC(=O)C32)OCO4)cc(OC)c1OC (stereo unspecified) | > 80 µM (inactive) |  |
| CCCSc1nnc(Sc2nnnn2-c2ccccc2)s1 |  | 5.68 |
| CC(=O)Nc1ccc(S(=O)(=O)N2c3ccccc3C(C)=CC2(C)C)cc1 | 24.4 µM (inactive) |  |
| COc1ccc(S(=O)(=O)/N=C2\C=C(Nc3ccc(O)cc3)C(=O)c3ccccc32)cc1 |  | 6.28 |
| COc1ccc(N/N=C/c2c(C(=O)O)ccc3ccccc23)cc1 |  | 4.79 |
| CCCCCCCOc1ccc(OC(=O)c2cccnc2)cc1 | > 80 µM (inactive) |  |
| Cc1ccc(NS(=O)(=O)c2ccc(-c3cnc(C4CC4)o3)cc2)c(C)c1 |  | 4.83 |
| CC(=O)NC(c1ccc2ccccc2c1)c1ccc2cccnc2c1O (stereo unspecified) |  | 5.14 |
| O=C(c1ccccc1-c1ccccc1)N1CCN(c2ccccn2)CC1 | > 80 µM (inactive) |  |
| CCCC(=O)NC(c1ccccc1Cl)c1ccc2cccnc2c1O (stereo unspecified) |  | 5.55 |
| COc1ccc(/C=N/NC(=O)c2[nH]c3ccc(Br)cc3c2-c2ccccc2)cc1 |  | 5.79 |
| O=C1C=C(c2ccc3ncccc3c2)C[C@@H](c2ccc3c(c2)OCO3)C1 | > 80 µM (inactive) |  |
| COc1ccc([N+](=O)[O-])cc1Nc1c2ccccc2nc2ccccc12 | 50.7 µM (inactive) |  |
| CCCCCCCCn1c2c(c(=N)c3c1CCC3)CCCC2 |  | 5.33 |
| CCOc1ccc2c(c1)OC(c1ccc(C)cc1)(C(F)(F)F)NC2=O (stereo unspecified) | > 80 µM (inactive) |  |
| CC/C=C/CC(=O)N[C@@H](c1ccccc1)[C@@H](O)C(=O)O[C@H]1C[C@@]2(O)[C@@H](OC(=O)c3ccccc3)C3[C@](C)(C(=O)[C@H](OC(C)=O)C(=C1C)C2(C)C)[C@@H](O)C[C@H]1OC[C@@]31OC(C)=O (stereo partly specified) | > 80 µM (inactive) |  |
| Cc1noc(C)c1COc1ccc(CC(=O)NCc2ccccc2)cc1 | > 80 µM (inactive) |  |
| CCOC(=O)c1[nH]c2c(c1C)C(=O)CC(c1ccc(F)cc1)C2 (stereo unspecified) | > 80 µM (inactive) |  |
| Cc1[nH]n(-c2ccccc2)c(=O)c1/C=N/Nc1nncc(-c2ccccc2)n1 |  | 5.48 |
| COc1cc(C2C(C#N)=C(N)Oc3cc4c(cc32)OCO4)cc(OC)c1OC (stereo unspecified) | 34.1 µM (inactive) |  |
| CCN(CC)c1ccc2nc3ccccc3[n+](CC)c2c1 |  | 4.91 |
| CCOC(=O)N/N=C/c1c(C)nn(-c2cccc(C(F)(F)F)c2)c1Cl | > 80 µM (inactive) |  |
| CNC[C@H](CC1CCCCC1)NC[C@H](Cc1ccccc1)NCCC12CC3CC(CC(C3)C1)C2 |  | 5.62 |

| SMILES | IC50 | pIC50 |
| --- | --- | --- |
| CCCCCCCCCn1c2c(c(=N)c3c1CCC3)CCCC2 |  | 5.47 |
| CCOc1ccc(-c2[nH]ncc2-c2ccc(OC)c(OC)c2)c(O)c1 | 28.4 µM (inactive) |  |
| CCCC(=O)NC(c1ccc(C(C)C)cc1)c1ccc2cccnc2c1O (stereo unspecified) |  | 5.38 |
| COC(=O)c1ccccc1NC(=O)Cn1c(-c2nonc2N)nc2ccccc21 | 43.6 µM (inactive) |  |
| O=[N+]([O-])c1ccc(Sc2ccc(Cl)c(Cl)c2)nc1 |  | 5.52 |
| COc1cc(NCCCCCCCN)c2ncccc2c1 | 21 µM (inactive) |  |
| CCOc1ccccc1C(=O)N1CCN(c2cccc(Cl)c2)CC1 | > 80 µM (inactive) |  |
| Cc1nc(Nc2nc3c(c(=O)[nH]2)CCC3)nc2ccccc12 |  | 5.44 |
| CCOc1ccccc1C1CC(=O)Nc2cc3c(cc21)OCCO3 (stereo unspecified) |  | 5.40 |
| O=C(c1ccc(Br)cc1)c1cc([N+](=O)[O-])ccc1N1CCOCC1 | 64.3 µM (inactive) |  |
| CCOc1ccccc1C1CC(=O)Nc2cc3c(cc21)OCO3 (stereo unspecified) | 67.1 µM (inactive) |  |
| CCCCCCCCn1c2c(c(=N)c3ccccc31)CCC2 |  | 5.46 |
| Cc1cccc(NS(=O)(=O)c2ccc(-c3cnc(C4CC4)o3)cc2)c1 | > 80 µM (inactive) |  |
| COc1cccc(-c2cc(=O)c3cc(NC(=O)c4ccc(N(C)C)cc4)ccc3[nH]2)c1 |  | 5.21 |
| COc1cc2c(c(OC)c1OC)-c1ccc(OC)c(=O)cc1[C@@H](NC(C)=O)CC2 | > 80 µM (inactive) |  |
| O=C(Nc1ccc(CSc2ccccc2)cc1)c1ccc(CN2CCOCC2)cc1 | > 80 µM (inactive) |  |
| COC(=O)C1=C(CN2CCCc3ccccc32)NC(=O)NC1c1ccc(F)cc1 (stereo unspecified) |  | 6.00 |
| CCOc1ccc2c(c1)OC(c1ccc(OC)cc1)(C(F)(F)F)NC2=O (stereo unspecified) | > 80 µM (inactive) |  |
| COc1ccc(NC(=O)/C(Cl)=C(/Cl)S(=O)Cc2ccc(Cl)cc2)cn1 (stereo unspecified) |  | 6.57 |
| CCOC(=O)COc1cccc2c(=O)n(CC(=O)NCc3ccc(F)cc3)ccc12 | > 80 µM (inactive) |  |
| COc1ccc2c(c1)C(=O)N1[C@H]3c4cc(Br)ccc4OC[C@@H]3[C@H](c3ccccc3)[C@]1(C)C(=O)N2 | > 80 µM (inactive) |  |
| COc1ccc([C@H]2CC(=O)C=C(c3c(OC)cccc3OC)C2)cc1 | > 80 µM (inactive) |  |
| CCn1c2ccccc2c2cc(Nc3cc(C)nc4ncnn34)ccc21 | > 80 µM (inactive) |  |
| Cc1ccc(-c2nc(-c3ccccn3)no2)cc1 |  | 5.63 |

| SMILES | IC50 | pIC50 |
| --- | --- | --- |
| CCc1ccc(/C=N/NC(=O)c2cc(-c3ccncc3)nc3ccccc23)s1 | > 80 µM (inactive) |  |
| Cc1nc2c(=O)n(C)c(=O)nc-2n(C)n1 |  | 6.33 |
| Cc1cccc(N2CCN(C(=O)c3c(-c4ccccc4Cl)noc3C)CC2)c1C | 78.6 µM (inactive) |  |
| Cc1cccc(N(C)S(=O)(=O)c2ccc(-c3cnc(C4CC4)o3)cc2)c1 | 23.8 µM (inactive) |  |
| CC(=O)Nc1ccc(S(=O)(=O)N2CCSc3ccccc32)cc1 | > 80 µM (inactive) |  |
| CCOC(=O)C(C)Oc1cccc2c(=O)n(CC(=O)NCc3ccc(F)cc3)ccc12 (stereo unspecified) | > 80 µM (inactive) |  |
| CCc1ccc2nc(SCC(=O)Nc3ccccc3N3CCOCC3)c(C#N)cc2c1 | 32.4 µM (inactive) |  |
| COc1cccc(N/C(N)=N/c2nc(CSc3ccccn3)cc(=O)[nH]2)c1 |  | 5.33 |
| COc1ccc(OC)c(-c2nnc3n2N=C(c2ccc(OC)c(OC)c2)CS3)c1 |  | 5.01 |
| CC(=O)O[C@@]12CO[C@@H]1C[C@H](O)[C@@]1(C)C(=O)[C@H](O)C3=C(C)[C@@H](OC(=O)[C@H](O)[C@@H](NC(=O)c4ccccc4)c4ccccc4)C[C@@](O)([C@@H](OC(=O)c4ccccc4)C12)C3(C)C (stereo partly specified) | 39.4 µM (inactive) |  |
| CCCCC(=O)NC(c1ccc(N(C)C)cc1)c1ccc2cccnc2c1O (stereo unspecified) | > 80 µM (inactive) |  |
| CC(C)(C)c1ccc(C(=O)O/N=C(\N)c2ccccn2)cc1 |  | 5.02 |
| O=C(COc1ccc(C(=O)c2ccccc2)cc1)NCc1ccc(F)cc1 | 29.2 µM (inactive) |  |
| O=C(OCCN1C(=O)c2cccc3c(N4CCOCC4)ccc(c23)C1=O)c1ccc(Cl)cc1 | > 80 µM (inactive) |  |
| CC(C)n1c(CN(C)Cc2ccccc2)nc2c1c(=O)n(C)c(=O)n2C | > 80 µM (inactive) |  |
| COc1ccc(NS(=O)(=O)c2ccc(-c3cnc(C4CC4)o3)cc2)cc1OC | > 80 µM (inactive) |  |
| O=S1(=O)C=C(Sc2nc3ccccc3s2)c2ccccc21 |  | 6.59 |
| Cc1ccc(Nc2cc(C)nn2-c2nc(C)cc(=O)[nH]2)cc1 |  | 6.04 |
| O=c1cc(-c2ccccc2)[nH]c2cc(Cl)ccc12 |  | 4.73 |
| CCN(CC)S(=O)(=O)c1ccc(NC(=O)c2ccc(CN3CCOCC3)cc2)cc1 | > 80 µM (inactive) |  |
| COc1ccccc1C(=O)N(CCC1CCCN1C)c1nc2ccccc2s1 (stereo unspecified) | 45.7 µM (inactive) |  |
| C/C=C(\C)C(=O)N[C@@H](c1ccccc1)[C@@H](O)C(=O)O[C@H]1C[C@@]2(O)[C@@H](OC(=O)c3ccccc3)C3[C@](C)(C(=O)[C@H](O)C(=C1C)C2(C)C)[C@@H](O)C[C@H]1OC[C@@]31OC(C)=O (stereo partly specified) | > 80 µM (inactive) |  |
| C(=N\Nc1nc2ccccc2s1)/c1ccccn1 |  | 6.08 |
| CC(C)Nc1ccc(C(CC(N)=O)NC(=O)c2ccc(Br)cc2)cc1[N+](=O)[O-] (stereo unspecified) |  | 5.39 |

| SMILES | IC50 | pIC50 |
| --- | --- | --- |
| COc1ccc(-n2cc(-c3ccc(C)cc3)[n+]3c2SCC3)cc1 | > 80 µM (inactive) |  |
| COc1ccc(Nc2cc(C)nc(-n3nc(C)cc3C)n2)cc1 | > 80 µM (inactive) |  |
| CC(=O)O[C@H]1C(=O)[C@]2(C)[C@H]([C@H](OC(=O)c3ccccc3)[C@]3(O)C[C@H](OC(=O)[C@H](O)[C@@H](NC(=O)c4ccccc4)c4ccccc4)C(C)=C1C3(C)C)[C@]1(OC(C)=O)CO[C@@H]1C[C@@H]2O |  | 6.29 |
| CC(Nc1ncnc2ccccc12)c1ccccc1 (stereo unspecified) | > 80 µM (inactive) |  |
| COc1ccc(C(=O)N(C)Cc2cnn(Cc3ccccc3)c2)cc1S(=O)(=O)N1CCOCC1 | > 80 µM (inactive) |  |
| O=C(Nc1ccc(Cc2ccncc2)cc1)c1ccc(S(=O)(=O)N2CCCC2)cc1 | 77.4 µM (inactive) |  |
| CCCCC(=O)NC(c1ccc(Cl)cc1Cl)c1ccc2cccnc2c1O (stereo unspecified) |  | 5.01 |
| Cc1cccc(N2CCN(C(=O)c3ccc(S(=O)(=O)N(C)c4ccccc4)cc3)CC2)c1C | > 80 µM (inactive) |  |
| CCOC(=O)c1ccc(NC(=O)Cn2cnc3cc(C)c(C)cc32)cc1 | > 80 µM (inactive) |  |
| COc1ccc(CNS(=O)(=O)c2cc(-c3cc(C)no3)ccc2C(C)C)cc1 | 64.6 µM (inactive) |  |
| Cc1nc(NCc2ccco2)c2c(C)c(C)sc2n1 |  | 5.51 |
| COc1ccc(CCNc2nnc(Sc3nnnn3-c3ccccc3)s2)cc1OC |  | 4.97 |
| COc1ccc(OC)c2c1C(=O)C(Cl)=C(Cl)C2=O |  | 5.78 |
| C/C(=N\NC(=O)c1cc(C)nc2ccccc12)c1ccccn1 | > 80 µM (inactive) |  |
| Cc1cc(=O)oc2cc(OCC3CC(c4ccccc4Cl)=NO3)ccc12 (stereo unspecified) | > 80 µM (inactive) |  |
| C[C@]12CC[C@H](O)C[C@H]1CC[C@@H]1[C@@H]2C[C@@H](O)[C@]2(C)[C@@H](C3=CC(=O)OC3)CC[C@]12O | 65.7 µM (inactive) |  |
| CCSc1nc2ccccc2n1C(=O)/C=C\c1ccc(OC)c(OC)c1 |  | 5.64 |
| O=C(Nc1ccc(Cl)c(S(=O)(=O)N2CCOCC2)c1)c1ccc(OCC2CCCO2)cc1 (stereo unspecified) |  | 4.74 |
| CCN1/C(=C/c2ccc3cc(C)ccc3[n+]2CC)Sc2ccc3sccc3c21 |  | 5.51 |
| COc1ccc(NC(=O)/C(Cl)=C(/Cl)S(=O)Cc2ccccc2)cn1 (stereo unspecified) |  | 6.59 |
| Cc1c(C(=O)N/N=C/c2c(O)ccc3ccccc23)nnn1-c1nonc1N | > 80 µM (inactive) |  |
| Cc1ccc2c(c1)COc1c3ccc(C(=O)O)cc3nn1-2 | > 80 µM (inactive) |  |
| CCN(CC)c1ccc(/C=N/NC(=O)c2nnn(-c3nonc3N)c2C(C)C)c(O)c1 |  | 5.69 |
| Cc1cc(C(=O)N2CC=C(c3ccccc3)CC2)c2ccccc2n1 | 75.7 µM (inactive) |  |

— PubChem BioAssay AID489035 (Sanford-Burnham Center for Chemical Genomics, 2010)
